# In PubChem BioAssay AID328 (DTP/NCI, 2004):
# Several values for one entry are separate records, joined by “and”; a condition that tells them apart may be missing. Equal entries are not always repeated. Toxic doses and inconclusive results are not listed.
# Test system: BDF1 mice, P388 leukemia ip, median survival T/C
# Assay: NCI In Vivo Anticancer Drug Screen. Data for tumor model P388 Leukemia (intraperitoneal) in B6D2F1 (BDF1) mice
# Settings: endpoint: median survival time, higher = longer survival
# How it was run: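 Vehicle-dosed animals serve as the reference; survival of compound-dosed, tumour-implanted mice is divided by it.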
# [1] = dose: 100.0 mg/kg/injection, schedule: Q01DX009 (ip), vehicle: Klucel (hydroxypropylcellulose) (HPC)
# [2] = dose: 200.0 mg/kg/injection, schedule: Q01DX009 (ip), vehicle: Klucel (hydroxypropylcellulose) (HPC)
# [3] = dose: 100.0 mg/kg/injection, schedule: Q01DX009 (ip), vehicle: saline with Tween-80
# [4] = dose: 100.0 mg/kg/injection, schedule: Q04DX003 (ip), vehicle: saline with Tween-80
# [5] = dose: 200.0 mg/kg/injection, schedule: Q01DX009 (ip), vehicle: saline with Tween-80
# [6] = dose: 200.0 mg/kg/injection, schedule: Q04DX003 (ip), vehicle: saline with Tween-80
# [7] = dose: 400.0 mg/kg/injection, schedule: Q01DX009 (ip), vehicle: saline with Tween-80
# [8] = dose: 400.0 mg/kg/injection, schedule: Q04DX003 (ip), vehicle: saline with Tween-80
# [9] = dose: 25.0 mg/kg/injection, schedule: Q01DX009 (ip), vehicle: saline
# [10] = dose: 50.0 mg/kg/injection, schedule: Q01DX009 (ip), vehicle: saline
# [11] = dose: 50.0 mg/kg/injection, schedule: Q04DX003 (ip), vehicle: saline
# [12] = dose: 100.0 mg/kg/injection, schedule: Q01DX009 (ip), vehicle: saline
# [13] = dose: 100.0 mg/kg/injection, schedule: Q04DX003 (ip), vehicle: saline
# [14] = dose: 200.0 mg/kg/injection, schedule: Q01DX009 (ip), vehicle: saline
# [15] = dose: 200.0 mg/kg/injection, schedule: Q04DX003 (ip), vehicle: saline
# [16] = dose: 50.0 mg/kg/injection, schedule: Q01DX009 (ip), vehicle: saline with Tween-80
# [17] = dose: 50.0 mg/kg/injection, schedule: Q01DX009 (ip), vehicle: Klucel (hydroxypropylcellulose) (HPC)
smiles,measurement,setting,value
NC(N)=NC(N)=Nc1ccc([As](=O)(O)O)c(O)c1,T/C,"dose: 44.0 mg/kg/injection, schedule: Q01DX009 (ip), vehicle: Klucel (hydroxypropylcellulose) (HPC)",156 % of control
same,T/C,"dose: 66.0 mg/kg/injection, schedule: Q01DX009 (ip), vehicle: Klucel (hydroxypropylcellulose) (HPC)",156 % of control
same,T/C,[1],169 % of control
same,T/C,"dose: 150.0 mg/kg/injection, schedule: Q01DX009 (ip), vehicle: Klucel (hydroxypropylcellulose) (HPC)",169 % of control
same,T/C,"dose: 150.0 mg/kg/injection, schedule: Q01DX009 (ip), vehicle: saline",155 % of control
c1ccc(SC23CC4CC(CC(C4)C2)C3)nc1,T/C,"dose: 100.0 mg/kg/injection, schedule: Q01DX001 (ip), vehicle: Klucel (hydroxypropylcellulose) (HPC)",100 % of control
same,T/C,"dose: 200.0 mg/kg/injection, schedule: Q01DX001 (ip), vehicle: Klucel (hydroxypropylcellulose) (HPC)",90 % of control
same,T/C,"dose: 400.0 mg/kg/injection, schedule: Q01DX001 (ip), vehicle: Klucel (hydroxypropylcellulose) (HPC)",100 % of control
O=C1C2CCC(C2)[CH]1[Hg][Cl] (centres undefined),T/C,"dose: 1.56 mg/kg/injection, schedule: Q01DX009 (ip), vehicle: saline with Tween-80",102 % of control
same,T/C,"dose: 3.13 mg/kg/injection, schedule: Q01DX009 (ip), vehicle: saline with Tween-80",103 % of control
same,T/C,"dose: 6.25 mg/kg/injection, schedule: Q01DX009 (ip), vehicle: saline with Tween-80",118 % of control
COc1ccc(-c2cc(-c3ccc(Cl)cc3)no2)cc1,T/C,[1],90 % of control
same,T/C,"dose: 100.0 mg/kg/injection, schedule: Q04DX003 (ip), vehicle: Klucel (hydroxypropylcellulose) (HPC)",100 % of control
same,T/C,[2],90 % of control
same,T/C,"dose: 200.0 mg/kg/injection, schedule: Q04DX003 (ip), vehicle: Klucel (hydroxypropylcellulose) (HPC)",100 % of control
same,T/C,"dose: 400.0 mg/kg/injection, schedule: Q01DX009 (ip), vehicle: Klucel (hydroxypropylcellulose) (HPC)",100 % of control
same,T/C,"dose: 400.0 mg/kg/injection, schedule: Q04DX003 (ip), vehicle: Klucel (hydroxypropylcellulose) (HPC)",100 % of control
O=C(/C=C/c1ccccc1)c1cccc(Br)c1,T/C,[3],91 % of control
same,T/C,[4],109 % of control
same,T/C,[5],98 % of control
same,T/C,[6],104 % of control
same,T/C,[7],119 % of control
same,T/C,[8],104 % of control
CCCC1CC[N-]CC1.CCCC1CC[N-]CC1.[Cl][Cu][Cl],T/C,"dose: 2.0 mg/kg/injection, schedule: Q01DX009 (ip), vehicle: saline",89 % of control
same,T/C,"dose: 4.0 mg/kg/injection, schedule: Q01DX009 (ip), vehicle: saline",100 % of control
same,T/C,"dose: 8.0 mg/kg/injection, schedule: Q01DX009 (ip), vehicle: saline",100 % of control
O=C(O)C1CC2CCC1C2 (centres undefined),T/C,"dose: 100.0 mg/kg/injection, schedule: Q01DX001 (ip), vehicle: saline with Tween-80",100 % of control
same,T/C,"dose: 200.0 mg/kg/injection, schedule: Q01DX001 (ip), vehicle: saline with Tween-80",95 % of control
same,T/C,"dose: 400.0 mg/kg/injection, schedule: Q01DX001 (ip), vehicle: saline with Tween-80",100 % of control
OCC#CC#CCO,T/C,"dose: 25.0 mg/kg/injection, schedule: Q01DX001 (ip), vehicle: saline",95 % of control
same,T/C,"dose: 50.0 mg/kg/injection, schedule: Q01DX001 (ip), vehicle: saline",118 % of control
same,T/C,"dose: 100.0 mg/kg/injection, schedule: Q01DX001 (ip), vehicle: saline",100 % of control and 109 % of control
CC(C)=CCC/C(C)=C/CN1C(=O)C=CC1=O,T/C,"dose: 0.39 mg/kg/injection, schedule: Q01DX009 (ip), vehicle: water",94 % of control
same,T/C,"dose: 0.78 mg/kg/injection, schedule: Q01DX009 (ip), vehicle: water",100 % of control
same,T/C,"dose: 1.56 mg/kg/injection, schedule: Q01DX009 (ip), vehicle: water",112 % of control
same,T/C,"dose: 3.12 mg/kg/injection, schedule: Q01DX009 (ip), vehicle: water",112 % of control
same,T/C,"dose: 6.25 mg/kg/injection, schedule: Q01DX009 (ip), vehicle: water",111 % of control
same,T/C,"dose: 12.5 mg/kg/injection, schedule: Q01DX009 (ip), vehicle: water",89 % of control
C[N+](C)(C)CCCC[N+](C)(C)C,T/C,[9],93 % of control
same,T/C,[10],91 % of control
same,T/C,[11],103 % of control
same,T/C,[12],87 % of control
same,T/C,[13],103 % of control
same,T/C,[14],89 % of control and 93 % of control
same,T/C,[15],100 % of control
same,T/C,"dose: 300.0 mg/kg/injection, schedule: Q01DX009 (ip), vehicle: saline",93 % of control and 96 % of control
CCN(CC)Cc1cc(Nc2c3ccc([N+](=O)[O-])cc3nc3ccc(OC)cc23)ccc1O,T/C,"dose: 12.5 mg/kg/injection, schedule: Q04DX003 (ip), vehicle: saline",111 % of control
same,T/C,[9],97 % of control
same,T/C,"dose: 25.0 mg/kg/injection, schedule: Q04DX003 (ip), vehicle: saline",111 % of control
same,T/C,[10],104 % of control
same,T/C,[11],113 % of control
same,T/C,[12],100 % of control
same,T/C,[13],113 % of control
same,T/C,[14],121 % of control
same,T/C,[15],89 % of control
same,T/C,"dose: 400.0 mg/kg/injection, schedule: Q04DX003 (ip), vehicle: saline",104 % of control
Nc1nc(N)c2nc(SC34CC5CC(CC(C5)C3)C4)c(N)nc2n1,T/C,[4],97 % of control
same,T/C,[6],88 % of control
same,T/C,[8],94 % of control
CC1CCCCC12OCCO2 (centres undefined),T/C,[16],100 % of control
same,T/C,[3],113 % of control
same,T/C,[4],100 % of control
same,T/C,[5],104 % of control
same,T/C,[6],109 % of control
same,T/C,[8],100 % of control
O=C1C2CCCC1C(c1ccccc1)C=C2c1ccc(O)cc1 (centres undefined),T/C,[4],104 % of control
same,T/C,[6],104 % of control
same,T/C,[8],114 % of control
Cc1ccc(C(=O)/C=C\c2ccccc2)cc1,T/C,[3],104 % of control
same,T/C,[4],103 % of control
same,T/C,[5],104 % of control
same,T/C,[6],103 % of control
same,T/C,[7],104 % of control
same,T/C,[8],103 % of control
ClCCN(CCCl)c1ccc(C=Nc2ccc(/C=C\c3ccncc3)cc2)cc1,T/C,"dose: 12.5 mg/kg/injection, schedule: Q01DX009 (ip), vehicle: saline with Tween-80",115 % of control
same,T/C,"dose: 25.0 mg/kg/injection, schedule: Q01DX009 (ip), vehicle: saline with Tween-80",101 % of control
same,T/C,[16],98 % of control
same,T/C,[3],89 % of control
CC(=O)Nc1ccc(OCCOC(=O)Nc2c(Cl)cccc2Cl)cc1,T/C,"dose: 25.0 mg/kg/injection, schedule: Q01DX009 (ip), vehicle: Klucel (hydroxypropylcellulose) (HPC)",111 % of control
same,T/C,[17],100 % of control
same,T/C,[1],100 % of control
CCN1C(=O)C(=O)c2ccccc21,T/C,"dose: 75.0 mg/kg/injection, schedule: Q01DX009 (ip), vehicle: saline with Tween-80",86 % of control
O=S1(=O)CCN(CCc2ccccc2)CC1,T/C,[17],94 % of control
same,T/C,[1],90 % of control
same,T/C,[2],96 % of control
O/N=C(/C(=N/O)c1ccccc1)c1ccccc1.O/N=C(/C(=N/O)c1ccccc1)c1ccccc1.[Cl][Rh][Cl],T/C,[9],119 % of control
same,T/C,[10],117 % of control
same,T/C,[12],94 % of control
same,T/C,[14],103 % of control
same,T/C,"dose: 400.0 mg/kg/injection, schedule: Q01DX009 (ip), vehicle: saline",95 % of control
[NH-]S(=O)(=O)O.[NH-]S(=O)(=O)O.[NH2-].[NH2-].[Pt+4],T/C,"dose: 10.0 mg/kg/injection, schedule: Q01DX009 (ip), vehicle: saline with Tween-80",90 % of control
same,T/C,"dose: 10.0 mg/kg/injection, schedule: Q04DX003 (ip), vehicle: saline",100 % of control
same,T/C,"dose: 20.0 mg/kg/injection, schedule: Q01DX009 (ip), vehicle: saline with Tween-80",100 % of control
same,T/C,"dose: 20.0 mg/kg/injection, schedule: Q04DX003 (ip), vehicle: saline",100 % of control
same,T/C,"dose: 40.0 mg/kg/injection, schedule: Q01DX009 (ip), vehicle: saline with Tween-80",90 % of control
same,T/C,"dose: 40.0 mg/kg/injection, schedule: Q04DX003 (ip), vehicle: saline",108 % of control
CC1CCC2(C(=O)O)CCC3(C)C(=CCC4C5(C)CCC(O)C(C)(C)C5CCC43C)C2C1C (centres undefined),T/C,"dose: 100.0 mg/kg/injection, schedule: Q01DX010 (ip), vehicle: acetone",120 % of control
same,T/C,"dose: 200.0 mg/kg/injection, schedule: Q01DX010 (ip), vehicle: acetone",115 % of control
same,T/C,"dose: 400.0 mg/kg/injection, schedule: Q01DX010 (ip), vehicle: acetone",120 % of control
